Measurements reported in patent US20220168230A1, “NANOPARTICLE MEDIATED THERAPY” (Yale University, priority 2019, published 2022).

Assays:
[1] = in vivo; cited from earlier work
[2] = PET scan of ^11C-glyburide uptake in left and right brain hemispheres of MCAO rats; type: in vivo, rat; details: intravenous injection, FIG. 1B
MCAO mice = assay: Therapeutic benefits in MCAO stroke mice (survival, TTC infarct volume, neurological score); type: in vivo; details: same amount of BA NPs and/or glyburide as in Gly-NPs, i.v. at 0, 24, 48 h, FIG. 6C, D
Excerpt: MCAO models were generated according to Cai, et al. Neurosci Lett 2015, 597, 127-31; Guo, et al. ACS nano 2018, 12 (8), 8723-8732; Han, et al. Nanomedicine 2016, 12 (7), 1833-42; Yu, et al. Advanced Materials 2018, 30, 1705383. Briefly, rats were anesthetized with 5% isoflurane (Aerrane, Baxter, Deerfield, Ill.) in 30% O2/70% N2O using a Tabletop Anesthesia system (Harvard Apparatus, USA). Isoflurane was then maintained at 1.5%. During the procedures, the body temperature of mice was maintained at 37.0±0.5° C. Regional cerebral blood flow (rCBF) was monitored using a laser Doppler flowmeter (AD Instruments Inc.) duration the course of surgery. […]
Mice were given treatment intravenously at 0, 24 and 48 h after surgery. Mice were monitored for survival for 10 days and were euthanized if one of the following criteria was met: (1) the mouse's body weight dropped below 15% of its initial weight, or (2) the mouse became lethargic or sick and unable to feed. […] Three days later, the score of each mouse was assessed by a standard behavioral test and were scored as follows: (1) normal motor function, (2) flexion of torso and contralateral forelimb when animal was lifted by the tail, (3) hemiparalysis resulting in circling to the contralateral side when held by tail on flat surface, but normal posture at rest, (4) leaning to the contralateral side at rest, and (5) no spontaneous motor activity. […]

[3] = in vivo; cited from earlier work; remark: listed apart in the source

C[C@@H]1CC[C@H]2[C@@H](C)C(=O)O[C@@H]3O[C@@]4(C)CC[C@@H]1[C@]32OO4 [Artemisinin]
bioavailability [1]: less than 10%

COc1ccc(Cl)cc1C(=O)NCCc1ccc(S(=O)(=O)NC(=O)NC2CCCCC2)cc1 [^11C-glyburide]
^11C-glyburide uptake, ischemic versus contralateral hemisphere [2]: no significant difference

COc1ccc(Cl)cc1C(=O)NCCc1ccc(S(=O)(=O)NC(=O)NC2CCCCC2)cc1 [glyburide]
therapeutic benefits compared with Gly-NP treatment (MCAO mice): significantly less efficacy
ability to penetrate the BBB [3]: limited ability to penetrate the BBB
